# Measured values reported in ChEMBL document CHEMBL3885861, “Open TG-GATES”.
# Organism: Rattus norvegicus
# Experiment: Open TG-GATES - Regimen: Daily Repeat
# Assay type: toxicity, organism-based, Sprague-Dawley
# Set-up: regimen Daily Repeat, gender Male, age 6 weeks
# Conditions: in vivo, po, 30 mg/kg, route gavage, dose level Low; for APTT / Bas / Eos / Fbg / Hb / Ht / Lym / MCH / MCHC / MCV / Mono / Neu / PT / Plat / RBC / Ret / WBC: tissue Blood; for KIDNEY_L / KIDNEY_R / KIDNEY_TOTAL: tissue Kidney; for LIVER: tissue Liver; for A/G / ALP / ALT / AST / BUN / CRE / Ca / Cl / DBIL / GLC / IP / K / LDH / Na / PL / RALB / TBIL / TC / TG / TP / gamma-GTP: tissue Plasma
compound,measurement,setting,value
C[C@]12CCC(=O)C=C1CC[C@@H]1[C@@H]2CC[C@@]2(C)[C@H]1CC[C@]2(C)O [METHYLTESTOSTERONE],TERMINAL_BW,"72 h, time 3 day",237.2 g
same,APTT,"72 h, time 3 day",15.8 s
same,Bas,"72 h, time 3 day",0%
same,Eos,"72 h, time 3 day",1.2%
same,Fbg,"72 h, time 3 day",296.2 mg/dL
same,Hb,"72 h, time 3 day",13.3 g/dL
same,Ht,"72 h, time 3 day",38.8%
same,Lym,"72 h, time 3 day",75.2%
same,MCH,"72 h, time 3 day",21.5 pg
same,MCHC,"72 h, time 3 day",34.2%
same,MCV,"72 h, time 3 day",63 fL
same,Mono,"72 h, time 3 day",2.6%
same,Neu,"72 h, time 3 day",20.8%
same,PT,"72 h, time 3 day",12.8 s
same,Plat,"72 h, time 3 day",111.2 x10_4/uL
same,RBC,"72 h, time 3 day",617 x10_4/ul
same,Ret,"72 h, time 3 day",6.6%
same,WBC,"72 h, time 3 day",57.6 x10_2/uL
same,KIDNEY_L,"72 h, time 3 day",1 g
same,KIDNEY_R,"72 h, time 3 day",1 g
same,KIDNEY_TOTAL,"72 h, time 3 day",2 g
same,LIVER,"72 h, time 3 day",11.1 g
same,A/G,"72 h, time 3 day",0.9
same,ALP,"72 h, time 3 day",1870.2 IU/L
same,ALT,"72 h, time 3 day",45.4 IU/L
same,AST,"72 h, time 3 day",69.6 IU/L
same,BUN,"72 h, time 3 day",15 mg/dL
same,CRE,"72 h, time 3 day",0.2 mg/dL
same,Ca,"72 h, time 3 day",11 mg/dL
same,Cl,"72 h, time 3 day",107.6 meq/L
same,DBIL,"72 h, time 3 day",0.018 mg/dL
same,GLC,"72 h, time 3 day",195 mg/dL
same,IP,"72 h, time 3 day",7.9 mg/dL
same,K,"72 h, time 3 day",4.1 meq/L
same,LDH,"72 h, time 3 day",58.2 IU/L
same,Na,"72 h, time 3 day",144 meq/L
same,PL,"72 h, time 3 day",144 mg/dL
same,RALB,"72 h, time 3 day",2.7 g/dL
same,TBIL,"72 h, time 3 day",0.03 mg/dL
same,TC,"72 h, time 3 day",67.2 mg/dL
same,TG,"72 h, time 3 day",123.6 mg/dL
same,TP,"72 h, time 3 day",5.8 g/dL
same,gamma-GTP,"72 h, time 3 day",1.4 IU/L
same,TERMINAL_BW,"[…], time 7 day",271.8 g
same,TERMINAL_BW,"[…], time 14 day",329.8 g
same,TERMINAL_BW,"[…], time 28 day",409.3 g
same,APTT,"[…], time 7 day",16.5 s
same,Bas,"[…], time 7 day",0%
same,Eos,"[…], time 7 day",1%
same,Fbg,"[…], time 7 day",308.4 mg/dL
same,Hb,"[…], time 7 day",13.1 g/dL
same,Ht,"[…], time 7 day",38.1%
same,Lym,"[…], time 7 day",76.8%
same,MCH,"[…], time 7 day",21 pg
same,MCHC,"[…], time 7 day",34.4%
same,MCV,"[…], time 7 day",61 fL
same,Mono,"[…], time 7 day",3%
same,Neu,"[…], time 7 day",18.6%
same,PT,"[…], time 7 day",13 s
same,Plat,"[…], time 7 day",111.9 x10_4/uL
same,RBC,"[…], time 7 day",625.6 x10_4/ul
same,Ret,"[…], time 7 day",5.8%
same,WBC,"[…], time 7 day",78.3 x10_2/uL
same,APTT,"[…], time 14 day",17.7 s
same,Bas,"[…], time 14 day",0.2%
same,Eos,"[…], time 14 day",1%
same,Fbg,"[…], time 14 day",289.2 mg/dL
same,Hb,"[…], time 14 day",14.4 g/dL
same,Ht,"[…], time 14 day",41.7%
same,Lym,"[…], time 14 day",79.2%
same,MCH,"[…], time 14 day",20.6 pg
same,MCHC,"[…], time 14 day",34.6%
same,MCV,"[…], time 14 day",59.6 fL
same,Mono,"[…], time 14 day",2.4%
same,Neu,"[…], time 14 day",16%
same,PT,"[…], time 14 day",13.3 s
same,Plat,"[…], time 14 day",114.4 x10_4/uL
same,RBC,"[…], time 14 day",700.2 x10_4/ul
same,Ret,"[…], time 14 day",3.9%
same,WBC,"[…], time 14 day",96.1 x10_2/uL
same,APTT,"[…], time 28 day",19.2 s
same,Bas,"[…], time 28 day",0%
same,Eos,"[…], time 28 day",1.4%
same,Fbg,"[…], time 28 day",300.2 mg/dL
same,Hb,"[…], time 28 day",15.7 g/dL
same,Ht,"[…], time 28 day",44.9%
same,Lym,"[…], time 28 day",75.8%
same,MCH,"[…], time 28 day",19.5 pg
same,MCHC,"[…], time 28 day",35%
same,MCV,"[…], time 28 day",55.6 fL
same,Mono,"[…], time 28 day",2.6%
same,Neu,"[…], time 28 day",20.2%
same,PT,"[…], time 28 day",13.1 s
same,Plat,"[…], time 28 day",101.6 x10_4/uL
same,RBC,"[…], time 28 day",809.2 x10_4/ul
same,Ret,"[…], time 28 day",2.2%
same,WBC,"[…], time 28 day",84 x10_2/uL
same,KIDNEY_L,"[…], time 7 day",1.1 g
same,KIDNEY_R,"[…], time 7 day",1.1 g
same,KIDNEY_TOTAL,"[…], time 7 day",2.3 g
same,KIDNEY_L,"[…], time 14 day",1.3 g
same,KIDNEY_R,"[…], time 14 day",1.2 g
same,KIDNEY_TOTAL,"[…], time 14 day",2.5 g
same,KIDNEY_L,"[…], time 28 day",1.4 g
same,KIDNEY_R,"[…], time 28 day",1.4 g
same,KIDNEY_TOTAL,"[…], time 28 day",2.9 g
same,LIVER,"[…], time 7 day",12.5 g
same,LIVER,"[…], time 14 day",14.5 g
same,LIVER,"[…], time 28 day",17.1 g
same,A/G,"[…], time 7 day",0.9
same,ALP,"[…], time 7 day",1824.8 IU/L
same,ALT,"[…], time 7 day",46.8 IU/L
same,AST,"[…], time 7 day",75.2 IU/L
same,BUN,"[…], time 7 day",15 mg/dL
same,CRE,"[…], time 7 day",0.2 mg/dL
same,Ca,"[…], time 7 day",10.9 mg/dL
same,Cl,"[…], time 7 day",106 meq/L
same,DBIL,"[…], time 7 day",0.02 mg/dL
same,GLC,"[…], time 7 day",190.4 mg/dL
same,IP,"[…], time 7 day",7.6 mg/dL
same,K,"[…], time 7 day",4.1 meq/L
same,LDH,"[…], time 7 day",63.6 IU/L
same,Na,"[…], time 7 day",142.4 meq/L
same,PL,"[…], time 7 day",133 mg/dL
same,RALB,"[…], time 7 day",2.7 g/dL
same,TBIL,"[…], time 7 day",0.026 mg/dL
same,TC,"[…], time 7 day",54.6 mg/dL
same,TG,"[…], time 7 day",133 mg/dL
same,TP,"[…], time 7 day",5.8 g/dL
same,gamma-GTP,"[…], time 7 day",1.2 IU/L
same,A/G,"[…], time 14 day",0.8
same,ALP,"[…], time 14 day",1301 IU/L
same,ALT,"[…], time 14 day",49.8 IU/L
same,AST,"[…], time 14 day",72.8 IU/L
same,BUN,"[…], time 14 day",16.4 mg/dL
same,CRE,"[…], time 14 day",0.2 mg/dL
same,Ca,"[…], time 14 day",10.5 mg/dL
same,Cl,"[…], time 14 day",106.8 meq/L
same,DBIL,"[…], time 14 day",0.02 mg/dL
same,GLC,"[…], time 14 day",192.6 mg/dL
same,IP,"[…], time 14 day",7.1 mg/dL
same,K,"[…], time 14 day",4 meq/L
same,LDH,"[…], time 14 day",132.6 IU/L
same,Na,"[…], time 14 day",142.2 meq/L
same,PL,"[…], time 14 day",134.2 mg/dL
same,RALB,"[…], time 14 day",2.7 g/dL
same,TBIL,"[…], time 14 day",0.026 mg/dL
same,TC,"[…], time 14 day",54 mg/dL
same,TG,"[…], time 14 day",178.6 mg/dL
same,TP,"[…], time 14 day",5.9 g/dL
same,gamma-GTP,"[…], time 14 day",1.2 IU/L
same,A/G,"[…], time 28 day",0.8
same,ALP,"[…], time 28 day",1236.2 IU/L
same,ALT,"[…], time 28 day",43.6 IU/L
same,AST,"[…], time 28 day",66.8 IU/L
same,BUN,"[…], time 28 day",16.6 mg/dL
same,CRE,"[…], time 28 day",0.2 mg/dL
same,Ca,"[…], time 28 day",11.1 mg/dL
same,Cl,"[…], time 28 day",105.2 meq/L
same,DBIL,"[…], time 28 day",0.022 mg/dL
same,GLC,"[…], time 28 day",192 mg/dL
same,IP,"[…], time 28 day",6.7 mg/dL
same,K,"[…], time 28 day",3.9 meq/L
same,LDH,"[…], time 28 day",76.6 IU/L
same,Na,"[…], time 28 day",143.6 meq/L
same,PL,"[…], time 28 day",141.4 mg/dL
same,RALB,"[…], time 28 day",2.9 g/dL
same,TBIL,"[…], time 28 day",0.034 mg/dL
same,TC,"[…], time 28 day",56.2 mg/dL
same,TG,"[…], time 28 day",214 mg/dL
same,TP,"[…], time 28 day",6.3 g/dL
same,gamma-GTP,"[…], time 28 day",1 IU/L
